Reference: US20030059857A1, “G-protein coupled receptor and methods” (priority 2001, published 2003)

Legend:
Format in all cases: cell-based
SP174 receptor [1] = biological target: T1, SP174 receptor (Homo sapiens, UniProt Q9BPV8); assay: SP174 receptor ligand identification, Ca2+ FLIPR in transfected mammalian cells (description section); design: expressed in transfected cells; conditions: values given in the description; SP174 in pcDNA3.1 transfected into mammalian cells; read-out: EC50 for SP174 (agonists)
T1 sequence (Q9BPV8 1-333 isoform Q9BPV8-2): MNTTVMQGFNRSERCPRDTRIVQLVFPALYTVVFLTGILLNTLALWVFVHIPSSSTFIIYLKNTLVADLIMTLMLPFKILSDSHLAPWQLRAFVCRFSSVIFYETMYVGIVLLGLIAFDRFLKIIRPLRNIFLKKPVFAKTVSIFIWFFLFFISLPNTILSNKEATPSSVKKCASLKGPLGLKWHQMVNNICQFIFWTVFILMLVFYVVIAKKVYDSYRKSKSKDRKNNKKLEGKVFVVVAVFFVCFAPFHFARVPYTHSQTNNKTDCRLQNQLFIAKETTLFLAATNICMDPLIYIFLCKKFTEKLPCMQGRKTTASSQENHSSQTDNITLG
Protocol: (§1) In order to identify SP174 receptor ligands the SP174 open reading frame was subcloned into the pcDNA3.1 expression vector under the control of the CMV promoter and transfected into mammalian cells. After allowing two days for receptor expression, the transfected cells were seeded into 96 well plates, loaded with the Ca^2+ sensitive Fluo-3AM dye and challenged with various compounds. The peak increments in Ca^2+ evoked by the test compounds were measured using the Fluorometric Imaging Plate Reader (FLIPR) system.

SP174 receptor [2] = biological target: T1, SP174 receptor; assay: FLIPR assay, HEK293f cells transiently co-transfected with SP174 receptor and chimera G protein Gq/i3; design: expressed in transfected cells; host or cells: HEK293f cells (G-418-resistant HEK293), transient, lipofectamine; conditions: Example 1; for EC50: HEK293f cells co-transfected with SP174 and Gq/i3; for specific activity on SP174 transfected cells (FLIPR screen of ligand collection): versus vector/Gq/i3 negative control
From the text: SP174 receptor cDNA was subcloned into the pcDNA3.1 expression vector (Invitrogen) and transiently co-transfected with chimera G protein Gq/i3 into HEK293f cells using lipofectamine (Gibco-BRL). HEK293f cells are the HEK293 cells which are resistant to G-418. Chimera G protein Gq/i3 was constructed by replacing the C-terminus five amino acid residues of human Gqa with the five amino acid residue of human Gi3a (Conklin et al., Nature, 363, p274-276). pcDNA 3.1 vector DNA was also co-transfected with chimera G protein Gq/i3 as a negative control. The transfected cells were seeded into 96 well plates and incubated overnight at 37° C. in a tissue culture incubator. The growth medium was aspirated and replaced with […] of loading medium (DMEM containing 1% FBS, […]/10% pluronic acid and 2.5 mM Probenecid) and incubated for 1 hour at 37° C. The cells were subsequently washed 3 times with Hank's BSS buffer containing 20 mM HEPES, 2.5 mM Probenecid, and 0.1% BSA using the gentle setting in a Denley cell washer (Denley Instruments). The washed cells were placed in a Fluorometric Imaging Plate Reader (FLIPR) and changes in cellular fluorescence recorded after the addition of various dilutions of tissue extract fractions.
EC50 values for ADP, ADPβS, 2-MeS-ADP, 2-MeS-ATP, 2-Cl-ATP and IDP were […], respectively, and the order of potency was 2-MeS-ATP=2-MeS-ADP>ADP=ADPβS>IDP.
The SP174 receptor assay was similar as Example 1 a. The SP174 receptor cDNA was subcloned into the pcDNA3.1 expression vector (Invitrogen) and transiently co-transfected with Gq/i3 into HEK293f cells using lipofectamine (Gibco-BRL). pcDNA 3.1 vector DNA was also co-transfected with Gq/i3 as a negative control. A variety of nucleotides, RBI small moleculars, and in-house peptide collection were screened. Twelve compounds were identified to be the agonists of the SP174 receptor. Their fluorecence change with different amount of the compounds were detected, the data were processed using Prism software to obtain their EC50 value. Other agonists can be identified using similar approaches. To identify antagonists of the SP174 receptor, two-addition approach was adapted. First, the compounds to be screened were added to the SP174 receptor transfected cells, after 5 minutes 100 nM of ADP were added as second addition and the fluorescence changes were recorded. In this assay antagonists inhibit the fluorecence signal of ADP.

SP174 receptor [3] = biological target: T1, SP174 receptor; assay: cAMP assay (inhibition of adenylyl cyclase) in SP174 receptor cells; design: expressed in transfected cells
Protocol: as §1, with “system. The endogenous ligand of the SP174 receptor was purified from rat spinal cords using a series of chromatography steps and its structure was identified as being ADP by Mass spectroscopy. […] In addition to ADP, other agonists were also identified for SP174.” for “system.”
The SP174 receptor cDNA was stably transfected into HEK293f cells according standard procedures. The SP174 receptor stable cell line and wild type cell grown on 12-well plates were incubated for 2 hr with 200 μl of medium plus 5 μCi of [3H]adenine/ml. Then 50 μl of Hepes (250 mM, pH 7.5, 50 μM Forskolin, 200 μM IBMX) with the compound to be screened is added to the cells and incubated for 10 minutes at 37° C. Incubations were terminated by addition of 0.8 ml of 5% trichloroacetic acid. [^3H]cAMP was purified using Dowex and alumina chromatography as previously described (Harden et al., Mol. Pharmacol. 21:570-580, 1982).

Row | SMILES | EC50 (SP174 receptor [1]) [nM] | EC50 (SP174 receptor [2]) [nM] | specific activity on SP174 transfected cells (FLIPR screen of ligand collection) (SP174 receptor [2]) | mode of activation of the SP174 receptor (SP174 receptor [3])
1 | O=c1[nH]cnc2c1ncn2[C@@H]1O[C@H](COP(=O)(O)OP(=O)(O)O)[C@@H](O)[C@H]1O [IDP] | 200 | 196 | – | –
2 | Nc1nc(Cl)nc2c1ncn2[C@@H]1O[C@H](COP(=O)(O)OP(=O)(O)OP(=O)(O)O)[C@@H](O)[C@H]1O [2-Cl-ATP] | 8 | 94 | – | –
3 | CSc1nc(N)c2ncn([C@@H]3O[C@H](COP(=O)(O)OP(=O)(O)O)[C@@H](O)[C@H]3O)c2n1 [2-MeS-ADP] | 0.32 | 21 | specifically active | –
4 | Nc1ncnc2c1ncn2[C@@H]1O[C@H](COP(=O)(O)OP(=O)(O)OP(=O)(O)OC[C@H]2O[C@@H](n3cnc4c(N)ncnc43)[C@H](O)[C@@H]2O)[C@@H](O)[C@H]1O [AP3A] | 8 | – | specifically active | –
5 | CSc1nc(N)c2ncn([C@@H]3O[C@H](COP(=O)(O)OP(=O)(O)OP(=O)(O)O)[C@@H](O)[C@H]3O)c2n1 [2-MeS-ATP] | 8 | 97 | – | –
6 | Nc1ncnc2c1ncn2[C@@H]1O[C@H](COP(=O)(O)OP(O)(O)=S)[C@@H](O)[C@H]1O [ADPβS] | 8 | 43 | specifically active | –
7 | Nc1nc(Cl)nc2c1ncn2[C@@H]1O[C@H](COP(=O)(O)OP(=O)(O)O)[C@@H](O)[C@H]1O [2-Cl-ADP] | – | – | specifically active | –

The remaining lines, values ahead:

Row | EC50 (SP174 receptor [1]) [nM] | EC50 (SP174 receptor [2]) [nM] | specific activity on SP174 transfected cells (FLIPR screen of ligand collection) (SP174 receptor [2]) | mode of activation of the SP174 receptor (SP174 receptor [3]) | SMILES
8 | 1.6 | 80 | activate specifically | inhibition of adenylyl cyclase | Nc1ncnc2c1ncn2[C@@H]1O[C@H](COP(=O)(O)OP(=O)(O)O)[C@@H](O)[C@H]1O [ADP]
9 | 8 | – | – | – | Nc1ncnc2c1ncn2[C@@H]1O[C@H](COP(=O)(O)OP(=O)(O)OP(O)(O)=S)[C@@H](O)[C@H]1O [ATPγS]
10 | 0.32 | – | – | – | Nc1ncnc2c1ncn2[C@@H]1O[C@H](COP(=O)(O)OP(=O)(O)OP(=O)(O)O)[C@@H](O)[C@H]1O [ATP]
